In patent publication US4414408A, “Phenolic antioxidants” (The Goodyear Tire & Rubber Company, priority 1982, dated 1983):

Assay: Oxygen absorption (time to absorb one percent oxygen)
Settings: 1.0 part antioxidant in SBR-1006

For `C=CC(=O)Oc1c(Cc2cc(C)cc(C(C)(C)C)c2O)cc(C)cc1C(C)(C)C` [Example 8, 2-(2-hydroxy-3-tert.butyl-5-methylbenzyl)-4-methyl-6-tert.butyl phenyl acrylate], the “Hours to Absorb 1% O2” value was 315 h.
